The target in test [1] is T1, human EP3 receptor (hEP3, D isoform) (Homo sapiens, UniProt P43115).
T1 construct: expressed in transfected cells; host or cells: COS-7 cells, transient transfection with pcDNA3 (lipofectin); plasma membrane fraction
T1 sequence (P43115 1-374 isoform P43115-4): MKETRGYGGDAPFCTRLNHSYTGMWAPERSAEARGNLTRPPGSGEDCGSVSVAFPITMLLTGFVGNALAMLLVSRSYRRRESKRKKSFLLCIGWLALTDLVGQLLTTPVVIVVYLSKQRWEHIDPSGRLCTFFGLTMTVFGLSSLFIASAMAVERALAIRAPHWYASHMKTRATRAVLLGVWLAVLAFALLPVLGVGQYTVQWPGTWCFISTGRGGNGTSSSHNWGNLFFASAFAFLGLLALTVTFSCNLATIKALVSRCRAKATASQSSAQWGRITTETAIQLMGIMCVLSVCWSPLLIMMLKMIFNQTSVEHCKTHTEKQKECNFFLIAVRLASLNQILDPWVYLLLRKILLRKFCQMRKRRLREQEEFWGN
Nature of the test: Radioligand binding competition vs [3H]PGE2, human recombinant EP3 receptor. As to conditions: [3H]PGE2 competition, plasma membranes of transfected cells (COS-7 transient; HEK-293 also named), 60 min 25° C. The procedure: (§1) HEK-293 cells stably expressing the human or feline FP receptor, or EP1, EP2, EP3, or EP4 receptors were washed with TME buffer, scraped from the bottom of the flasks, and homogenized for 30 sec using a Brinkman PT 10/35 polytron. TME buffer was added to achieve a final 40 ml volume in the centrifuge tubes (the composition of TME is […]; ION HCl is added to achieve a pH of 7.4).
(§2) [^3H-] PGE2 (5 nM; specific activity 180 Ci mmol) was used as the radioligand for EP receptors. Binding studies employing EP1, EP2, EP3, EP4 were performed in duplicate in at least three separate experiments. A 200 μl assay volume was used. Incubations were for 60 min at 25° C. and were terminated by the addition of 4 ml of ice-cold 50 mM TRIS-HCl, followed by rapid filtration through Whatman GF/B filters and three additional 4 ml washes in a cell harvester (Brandel). Non-specific binding determined with 10^−5M of unlabeled PGE2,.
Human Recombinant EP3 and TP Receptors: Transient Transfectants.
Plasmids encoding the human EP3 (D isoform) or TP receptor were prepared by cloning the respective coding sequences into a pcDNA3 vector (Invitrogen). COS-7 cells were transfected with pcDNA3 containing cDNA encoding the EP3 or TP receptor by employing the lipofectin method, according to the manufacturers instructions (Gibco). For radioligand binding studies, cells were harvested two days after transfection.
Radioligand binding studies on plasma membrane fractions prepared from cells were performed as follows. Cells washed with TME buffer were scraped from the bottom of the plates and homogenized for 30 sec using a Brinkman PT 10/35 polytron. TME buffer was added as necessary to achieve a 40 ml volume in the centrifuge tubes. TME is comprised of 50 mM TRIS base, 10 mM MgCl2, 1 mM EDTA; pH 7.4 is achieved by adding 1 N HCl. The cell homogenate was centrifuged at 19,000 rpm for 20-25 min at 4° C. using a Beckman Ti-60 or T ? -70 rotor. The pellet was then resuspended in TME buffer to provide a final protein concentration of 1 mg/ml, as determined by Bio-Rad assay. Radioligand binding assays were performed in a 100 μl or 200 μl volume.
The binding of [^3H] PGE2 (specific activity 165 Ci/mmol) was determined in duplicate and, in at least 3 separate experiments. Incubations were for 60 min at 25° C. and were terminated by the addition of 4 ml of ice-cold 50 mM TRIS-HCl followed by rapid filtration through Whatman GF/B filters and three additional 4 ml washes in a cell harvester (Brandel). Competition studies were performed using a final concentration of 2.5 or 5 nM [H] PGE2 and non-specific binding was determined with 10^−5 M unlabelled PGE2.

Test [2] addresses T2, human EP4 receptor (hEP4) (Homo sapiens, UniProt P35408).
T2 construct: expressed in transfected cells; plasma membrane fraction
Briefly: Radioligand binding competition vs [3H]PGE2, human recombinant EP4 receptor. As to conditions: [3H]PGE2 competition, plasma membranes of HEK-293 stable transfectants, 60 min 25° C. The method, then:
Human Recombinant EP1, EP2, EP4, and FP Receptors: Stable Transfectants
as §1
The cell homogenate was centrifuged at 19000 r.p.m. for 20 min at 4° C. using a Beckman Ti-60 rotor. The resultant pellet was resuspended in TME buffer to give a final 1 mg/ml protein concentration, as determined by Biorad assay. Radioligand binding competition assays vs. [^3H-]17 -phenyl PGF2α (5 nM) were performed in a 100 μl volume for 60 min. Binding reactions were started by adding plasma membrane fraction. The reaction was terminated by the addition of 4 ml ice-cold TRIS-HCl buffer and rapid filtration through glass fiber GF/B filters using a Brandel cell harvester. The filters were washed 3 times with ice-cold buffer and oven dried for one hour. Non-specific binding was determined with 10 uM unlabeled 17 -phenyl PGF2α.
as §2
Plasmids encoding the human EP1, EP2, EP4, and FP receptors were prepared by cloning the respective coding sequences into the eukaryotic expression vector pCEP4 (Invitrogen). The pCEP4 vector contains an Epstein Barr virus (EBV) origin of replication, which permits episomal replication in primate cell lines expressing EBV nuclear antigen (EBNA-1). Similarly, competitive experiments were caried out using [3H]17-phenylPGF2α at 5 nM in the presence of test ligands at various concentrations. Also non-specific binding was, determined in the presence of excess unlabeled PGF2α (10^−5 M).
It also contains a hygromycin resistance gene that is used for eukaryotic selection. The cells employed for stable transfection were human embryonic kidney cells (HEK-293) that were transfected with and express the EBNA-1 protein. These HEK-293-EBNA cells (Invitrogen) were grown in medium containing Geneticin (G418) to maintain expression of the EBNA-1 protein. HEK-293 cells were grown in DMEM with 10% fetal bovine serum (FBS), 250 μg ml G418 (Life Technologies) and 200 μg ml^−1 gentamicin or penicillin/streptomycin.
For transfection, the cells were grown to 50-60% confluency on 10 cm plates. The plasmid pCEP4 incorporating cDNA inserts for the respective human prostanoid receptor (20 μg) was added to 500 μl of 250 mM CaCl2. HEPES buffered saline ×2 (2×HBS, 280 mM NaCl, 20 mM HEPES acid, 1.5 mM Na2 HPO4, pH 7.05-7.12) was then added dropwise to a total of […], with continuous vortexing at room temperature. After 30 min, 9 ml DMEM were added to the mixture. The DNA/DMEM/calcium phosphate mixture was then added to the cells, which had been previously rinsed with 10 ml PBS. The cells were then incubated for 5 hr at 37° C. in humidified 95% air/5% CO2. The calcium phosphate solution was then removed and the cells were treated with 10% glycerol in DMEM for 2 min. The glycerol solution was then replaced by DMEM with 10% FBS. The cells were incubated overnight and the medium was replaced by DMEM/10% FBS containing 250 μg ml^−1 G418 and penicillin/streptomycin. The following day hygromycin B was added to a final concentration of 200 μg ml^−1. […]

T2 sequence (P35408 whole entry): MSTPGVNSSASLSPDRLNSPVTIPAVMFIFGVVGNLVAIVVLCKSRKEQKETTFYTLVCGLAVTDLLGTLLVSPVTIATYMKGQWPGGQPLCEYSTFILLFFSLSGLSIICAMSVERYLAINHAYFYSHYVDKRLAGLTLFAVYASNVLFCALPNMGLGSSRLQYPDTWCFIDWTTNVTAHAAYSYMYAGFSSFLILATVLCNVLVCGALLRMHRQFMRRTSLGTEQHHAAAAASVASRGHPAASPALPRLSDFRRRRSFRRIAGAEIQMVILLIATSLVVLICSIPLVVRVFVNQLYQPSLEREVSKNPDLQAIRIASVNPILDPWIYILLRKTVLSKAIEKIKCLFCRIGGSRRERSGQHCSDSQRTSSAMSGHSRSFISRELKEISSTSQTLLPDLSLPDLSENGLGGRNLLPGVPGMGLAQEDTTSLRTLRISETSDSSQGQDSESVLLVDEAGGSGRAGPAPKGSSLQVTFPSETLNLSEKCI

One may read the IC50 as the concentration that inhibits the measured activity by half. In the case of `COC(=O)CSCCCS[C@H]1C(=O)C[C@@H](O)[C@@H]1/C=C/C(O)Cc1ccc2ccccc2c1` (single isomer, unassigned) [Example 21H], the results for the IC50 in test [1] and in test [2] were > 10000 nM and 100 nM, respectively. The matching figures for `COC(=O)CSCCCS[C@H]1C(=O)C[C@@H](O)[C@@H]1/C=C/C(O)Cc1ccc2ccccc2c1` (single isomer, unassigned) [Example 21L]: > 10000 nM and 13 nM. The matching figures for `O=C(O)CSCCCS[C@H]1C(=O)C[C@@H](O)[C@@H]1/C=C/C(O)Cc1ccc2ccccc2c1` (single isomer, unassigned) [Example 22H]: > 10000 nM and 32 nM. `COC(=O)CSCCCS[C@H]1C(=O)C[C@@H](O)[C@@H]1/C=C/C(O)Cc1csc2ccccc12` (single isomer, unassigned) [Example 24H]: in test [2], the IC50 was determined as 200 nM. On the same count and under the same terms, under `COC(=O)CSCCCS[C@H]1C(=O)C[C@@H](O)[C@@H]1/C=C/C(C)(O)CCc1ccc2ccccc2c1` (single isomer, unassigned) [Example 27H] stands 500 nM. In the case of `COC(=O)CSCCCS[C@H]1C(=O)C[C@@H](O)[C@@H]1/C=C/C(C)(O)CCc1ccc2ccccc2c1` (single isomer, unassigned) [Example 27L], the IC50 in test [2] was 3400 nM. Same read-out and setting: next, `COC(=O)CSCCCS[C@H]1C(=O)C[C@@H](O)[C@@H]1/C=C/C(O)CCc1ccc2ccccc2c1` (stereo partly drawn) [Example 9H, {3-[(1R,2S,3R)-3-Hydroxy-2-((S)-(E)-3-(hydroxy)-5-(naphthyl)pent-1-enyl)-5-oxocyclopentylsulfanyl]propylsulfanyl}acetic acid methyl ester]: 40 nM. For `COC(=O)CSCCCS[C@H]1C(=O)C[C@@H](O)[C@@H]1/C=C/C(O)CCc1ccc2ccccc2c1` (stereo partly drawn) [Example 9L, {3-[(1R,2S,3R)-3-Hydroxy-2-((S)-(E)-3-(hydroxy)-5-(naphthyl)pent-1-enyl)-5-oxocyclopentylsulfanyl]propylsulfanyl}acetic acid methyl ester], the IC50 in test [1] is > 10000 nM. In the case of `COC(=O)CSCCCS[C@H]1C(=O)C[C@@H](O)[C@@H]1/C=C/[C@@H](O)CCc1cc2ccccc2s1` [Example 13H, {3-[(1R,2S,3R)-3-Hydroxy-2-((S)-(E)-3-hydroxy-5-(benzothienyl)pent-1-enyl)-5-oxocyclopentylsulfanyl]propylsulfanyl}acetic acid methyl ester], in test [2], the IC50 is 91 nM.

`CC(O)(/C=C/[C@H]1[C@H](O)CC(=O)[C@@H]1SCCCSCC(=O)O)CCc1ccc2ccccc2c1` (stereo partly drawn) [Example 28H, {3-[(1R,2S,3R)-3-Hydroxy-2-((S)-(E)-3-(hydroxy)-3-(methyl)-5-(naphthyl)pent-1-enyl)-5-oxocyclopentylsulfanyl]propylsulfanyl}acetic acid]: the IC50 in test [1] was > 10000 nM; in test [2], 1700 nM. The matching figures for `CC(O)(/C=C/[C@H]1[C@H](O)CC(=O)[C@@H]1SCCCSCC(=O)O)CCc1ccc2ccccc2c1` (stereo partly drawn) [Example 28L, {3-[(1R,2S,3R)-3-Hydroxy-2-((S)-(E)-3-(hydroxy)-3-(methyl)-5-(naphthyl)pent-1-enyl)-5-oxocyclopentylsulfanyl]propylsulfanyl}acetic acid]: > 10000 nM and 1500 nM.

As to `COC(=O)CSCCCS[C@H]1C(=O)C[C@@H](O)[C@@H]1/C=C/C(C)(O)Cc1ccc2ccccc2c1` (stereo partly drawn) [Example 30H, {3-[(1R,2S,3R)-3-Hydroxy-2-((E)-3-hydroxy-3-methyl-4-naphthalen-2-yl-but-1-enyl)-5-oxocyclopentylsulfanyl]propylsulfanyl}acetic acid methyl ester], the IC50 was > 10000 nM in test [1] and 3100 nM in test [2].

Consider `COC(=O)CSCCCS[C@H]1C(=O)C[C@@H](O)[C@@H]1/C=C/C(C)(O)Cc1ccc2ccccc2c1` (stereo partly drawn) [Example 30L, {3-[(1R,2S,3R)-3-Hydroxy-2-((E)-3-hydroxy-3-methyl-4-naphthalen-2-yl-but-1-enyl)-5-oxocyclopentylsulfanyl]propylsulfanyl}acetic acid methyl ester], for which the IC50 in test [2] is 3200 nM. With `CC(O)(/C=C/[C@H]1[C@H](O)CC(=O)[C@@H]1SCCCSCC(=O)O)Cc1ccc2ccccc2c1` (stereo partly drawn) [Example 31H, {3-[(1R,2S,3R)-3-Hydroxy-2-((E)-3-hydroxy-3-methyl-4-naphthalen-2-yl-but-1-enyl)-5-oxocyclopentylsulfanyl]propylsulfanyl}acetic acid], the IC50 in test [1] is 8100 nM; in test [2], 300 nM. Regarding `COC(=O)CSCCCS[C@H]1C(=O)C[C@@H](O)[C@@H]1/C=C/[C@@](C)(O)CCc1cc2ccccc2s1` [Example 33H, {3-[(1R,2S,3R)-3-Hydroxy-2-((S)-(E)-3-(hydroxy)-3-(methyl)-5-(benzothienyl)pent-1-enyl)-5-oxocyclopentylsulfanyl]propylsulfanyl}acetic acid methyl ester], in test [2], the IC50 was found to be 200 nM. Same read-out and setting: next, `COC(=O)CSCCCS[C@H]1C(=O)C[C@@H](O)[C@@H]1/C=C/[C@@](C)(O)CCc1cc2ccccc2s1` [Example 33L, {3-[(1R,2S,3R)-3-Hydroxy-2-((S)-(E)-3-(hydroxy)-3-(methyl)-5-(benzothienyl)pent-1-enyl)-5-oxocyclopentylsulfanyl]propylsulfanyl}acetic acid methyl ester]: 300 nM.
